Source: patent US6608065B1, “Use of cGMP phosphodiesterase inhibitors in methods to treat female sexual dysfunction” (ICOS Corporation, priority 1995, dated 2003)

| melting point | Compound |
| --- | --- |
| 307 to 309 °C | C[C@H]1C(=O)N2[C@H](c3ccc4c(c3)OCO4)c3[nH]c4ccccc4c3C[C@@H]2C(=O)N1C [Compound B, (3S, 6R, 12aR)-2,3,6,7,12,12a-hexahydro-2,3-dimethyl-6-(3,4-methylenedioxyphenyl)-pyrazino[2′, 1′:6,1]pyrido[3,4-b]indole-1,4-dione] |
| 319 to 321 °C | C[C@@H]1NC(=O)[C@H]2Cc3c([nH]c4ccccc34)[C@@H](c3ccc4c(c3)OCO4)N2C1=O [Example 3, (3S, 6R,12aR)-2,3,6,7,12,12a-Hexahydro-3-methyl-6-(3,4-methylenedioxyphenyl)-pyrazino[2′, 1′:6,1]pyrido[3,4-b]indole-1,4-dione] |
